Measured values taken from patent US20260200903A1, “PHARMACEUTICAL COMPOSITION FOR AMELIORATING MALIGNANT DISEASES” (KINKI UNIVERSITY, priority 2020, published 2026).

Tests used:
Assay type in all cases: cell-based
[1] = system: RPMI1788 cells (human normal B cell line); experiment: Cell death inducing effect on RPMI1788 normal B cells, trypan blue staining; conditions: RPMI1788 (normal B lymphocyte), cell viability
Description: (§1) RPMI1788 cells (human normal B cell line) were cultured under 5% CO2 at 37° C. The culture medium used RPMI-1640 medium with 100 μg/mL penicillin, 100 U/mL streptomycin and fetal bovine serum. RPMI1788 cells were seeded into 96-well plates and incubated with each concentration of the compounds was added, and cell viability was determined by the trypan blue staining.
For controls, only 0.5% DMSO (diluted in PBS) used to dissolve the compounds was added. For each concentration, each bar line is indicated by an arrow with the sign “n, a, 1, 2, 3, 4, 5, 6, 7, 8, 9, 10, 11, 12” from left to right. The “1, 3, 5, 7, 9, 11” are omitted from the graph, but the sign “1” shall be indicated by an arrow between the signs “a” and “2”, the sign “3” between the signs “2” and “4”, and other odd numbers shall likewise be indicated by arrows between even numbers before and after.
The sign “n” is the norathyriol (formula (n)) administration group, the sign “a” is the mangiferin 8a (formula (a)) administration group, the sign “1” is the yk-7 (formula (1)) administration group, the sign “2” is the yk-8-1 (formula (2)) administration group, the sign “3” is the yk-8-3 (formula (3)) administration group, the sign “4” is the M7 (formula (4)) administration group, the sign “5” is the M9 (formula (5)) administration group, the sign “6” is the M11 (formula (6)) administration group, the sign “7” is the M12 (formula (7)) administration group, the sign “8” is the M14 (formula (8)) administration group, the sign “9” is the M15 (formula (9)) administration group, the sign “10” is the M16 (formula (10)) administration group, the sign “11” is the M18 (formula (11)) administration group, the sign “12” is the M19 (formula (12)) administration group, respectively. The IC50 values for each compound is also listed in the upper right corner of the figure.

phospho-NIK = target: T1, phospho-NIK (Homo sapiens, UniProt Q99558); experiment: Immunoblotting of phospho-NIK in KMS-28BM cells; conditions: 72 h, vs control, 1 μM mangiferin 8a/M8, 1 μM norathyriol, 0.5 μM M7, 0.2 μM M9, 5 μM yk-7, 0.5 μM yk-8-3, 100 μM yk-8-1, 0.5 μM M19, M18, M11, 0.005 μM M16, M15, M14, 0.05 μM M12
T1 construct: Proteins were extracted from these cell suspensions with cell lysate and used as samples; endogenous in cells; host or cells: KMS-28BM (myeloma)
Description: Immunoblotting was performed on KMS-28BM cells to investigate the inhibitory effect of each compound administration on NIK inhibition and the activation of IKK, NF-κB p52, and NF-κB p65, which are downstream signals of NIK. As a result, inhibition of NIK activation, inhibition of IKK activity, and inhibition of nuclear translocation of NF-κB p52 and NF-κB p65 were observed (FIG. 15 and FIG. 16).
As a control, compounds untreated KMS-28BM cells were seeded in 150 cm^2 flasks and incubated for 72 h at 37° C. and 5% CO2. KMS-28BM cells were seeded into 150 cm^2 flasks and pre-cultured for 24 h. After incubation, KMS-28BM cells were treated with […], 1 μM norathyriol, 0.5 μM M7 (formula (4)), 1 μM M8 (mangiferin 8a: listed in duplicate), 0.2 μM M9 (formula (5)), 5 μM yk-7 (formula (1)), 0.5 μM yk-8-3 (formula (3)) and 100 μM yk-8-1 (formula (2)) at final concentrations, and incubated for 72 h at 37° C. and 5% CO2. In addition, KMS-28BM cells were also treated with 0.5 μM M19 (formula (12)), 0.5 μM M18 (formula (11)), 0.005 μM M16 (formula (10)), […] (formula (9)), 0.005 μM M14 (formula (8)), 0.05 μM M12 (formula (7)) and […] (formula (6)) at the final concentrations, and incubated for 72 h at 37° C. and 5% CO2. Proteins were extracted from these cell suspensions with cell lysate and used as samples.
The nucleus and cytoplasmic substrate were separated from the cells using the ProteoExtract (registered trademark) Subcellular Proteome Extraction Kit from Merck Ltd. to extract the cytoplasmic and nuclear fractions.
After SDS-PAGE, each sample was transferred to a PVDF membrane and examined using anti-phospho-NIK, anti-NIK, anti-phospho-IKK, anti-IKK, anti-P-actin, anti-NF-κB p52 and anti-NF-κB p65 antibody, and anti-Lamin antibody.
The antibody species is indicated in the vertical direction. Specifically, for anti-phospho-NIK antibody, “Phospho-NIK” was used, for anti-NIK antibody, “NIK” was used, for anti-phospho-IKK antibody, “Phospho-IKK” was used, for anti-IKK antibody, “IKK” was used, for anti-p-actin antibody, “p-actin” was used, for anti-NF-κB p52 antibody, “NF-κB p52 nuclear” was used, for anti-NF-κB p65 antibody, “NF-κB p65 nuclear” was used, and for anti-Lamin antibody, “Lamin” was used.

[2] = system: HUT-78 cells (peripheral T lymphoma cell line); experiment: Cell death inducing effect on HUT-78 cells, trypan blue staining; conditions: HUT-78 (peripheral T-cell lymphoma), cell viability
Description: HUT-78 cells (peripheral T lymphoma cell line) were cultured under 5% CO2 at 37° C.
The culture medium used RPMI-1640 medium with 100 μg/mL penicillin, 100 U/mL streptomycin and fetal bovine serum. HUT-78 cells were seeded into 96-well plates and incubated with each concentration of the compounds was added, and cell viability was determined by the trypan blue staining.
(§2) For controls, only 0.5% DMSO (diluted in PBS) used to dissolve the compounds was added. For each concentration, the codes “5, 6, 7, 8, 9, 10, 11, 12” and arrows are shown from left to right. The sign “5” is the M9 (formula (5)) administration group, the sign “6” is the M11 (formula (6)) administration group, the sign “7” is the M12 (formula (7)) administration group, the sign “8” is the M14 (formula (8)) administration group, the sign “9” is the M15 (formula (9)) administration group, the sign “10” is the M16 (formula (10)) administration group, the sign “11” is the M18 (formula (11)) administration group, the sign “12” is the M19 (formula (12)) administration group, respectively. The IC50 values for each compound is also listed in the upper right corner of the figure.

[3] = system: ATN-1 cells (adult T cell leukemia cell line); experiment: Cell death inducing effect on ATN-1 cells, trypan blue staining; conditions: ATN-1 (ATL), cell viability
Description: as §1, with “ATN-1” for “RPMI1788”, “(adult T cell leukemia” for “(human normal B”
as §2

T1 sequence (Q99558 whole entry): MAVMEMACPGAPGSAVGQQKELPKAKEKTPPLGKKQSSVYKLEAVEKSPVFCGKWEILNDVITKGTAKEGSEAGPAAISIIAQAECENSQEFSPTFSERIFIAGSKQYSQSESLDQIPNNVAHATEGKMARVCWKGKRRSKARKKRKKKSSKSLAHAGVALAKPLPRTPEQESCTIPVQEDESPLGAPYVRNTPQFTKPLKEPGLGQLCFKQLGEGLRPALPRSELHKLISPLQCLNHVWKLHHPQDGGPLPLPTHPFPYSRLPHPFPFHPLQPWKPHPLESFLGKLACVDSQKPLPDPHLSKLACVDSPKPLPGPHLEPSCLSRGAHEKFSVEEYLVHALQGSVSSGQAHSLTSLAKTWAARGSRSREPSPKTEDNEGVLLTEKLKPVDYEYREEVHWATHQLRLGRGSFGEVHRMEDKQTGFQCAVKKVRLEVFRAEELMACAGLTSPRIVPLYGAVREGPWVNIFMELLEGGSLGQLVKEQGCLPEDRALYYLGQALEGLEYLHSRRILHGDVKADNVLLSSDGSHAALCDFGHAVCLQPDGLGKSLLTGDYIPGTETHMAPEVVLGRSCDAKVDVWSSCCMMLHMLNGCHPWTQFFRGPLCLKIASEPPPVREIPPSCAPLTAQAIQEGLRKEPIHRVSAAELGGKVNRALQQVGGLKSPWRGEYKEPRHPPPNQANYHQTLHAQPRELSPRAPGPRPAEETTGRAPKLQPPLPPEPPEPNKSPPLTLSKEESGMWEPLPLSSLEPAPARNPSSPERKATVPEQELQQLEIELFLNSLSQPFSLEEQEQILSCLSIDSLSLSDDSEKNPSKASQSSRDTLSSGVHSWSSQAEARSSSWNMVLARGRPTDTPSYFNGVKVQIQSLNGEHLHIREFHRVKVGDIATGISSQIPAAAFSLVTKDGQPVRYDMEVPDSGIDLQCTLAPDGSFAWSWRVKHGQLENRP

| Compound | IC50 ([1]; Homo sapiens, RPMI-1788) [nM] | phospho-NIK band density (anti-phospho-NIK antibody) (phospho-NIK) | IC50 [1] [nM] | IC50 ([2]; Homo sapiens, HuT78) [nM] | IC50 ([3]; Homo sapiens) [nM] | IC50 [2] [nM] | IC50 [3] [nM] |
| --- | --- | --- | --- | --- | --- | --- | --- |
| CCCCC(=O)OC[C@H]1O[C@@H](c2c(O)cc3oc4cc(O)c(O)cc4c(=O)c3c2O)[C@H](OC(=O)CCCC)[C@@H](OC(=O)CCCC)[C@@H]1OC(=O)CCCC [yk-7, 2′,3′,4′,6′-tetra-O-valerylmangiferin] | 2760 | decrease in band density | – | – | – | – | – |
| CCCCC(=O)OC[C@H]1O[C@@H](c2c(O)cc3oc4cc(O)c(O)cc4c(=O)c3c2OC(=O)CCCC)[C@H](OC(=O)CCCC)[C@@H](OC(=O)CCCC)[C@@H]1OC(=O)CCCC [yk-8-3, 1,2′,3′,4′,6-penta-O-valerylmangiferin] | 416 | decrease in band density | – | – | – | – | – |
| O=c1c2cc(O)c(O)cc2oc2cc(O)cc(O)c12 [norathyriol, reference compound] | – | decrease in band density | – | – | – | – | – |
| CCCCC(=O)OC[C@H]1O[C@@H](c2c(OC(=O)CCCC)cc3oc4cc(OC(=O)CCCC)c(OC(=O)CCCC)cc4c(=O)c3c2OC(=O)CCCC)[C@H](OC(=O)CCCC)[C@@H](OC(=O)CCCC)[C@@H]1OC(=O)CCCC [yk-8-1, 1,3,2′,3′,4′,6,6′,7-octa-O-valerylmangiferin] | – | decrease in band density | > 100000 | – | – | – | – |
| CCCC(=O)OC[C@H]1O[C@@H](c2c(O)cc3oc4cc(O)c(O)cc4c(=O)c3c2O)[C@H](OC(=O)CCC)[C@@H](OC(=O)CCC)[C@@H]1OC(=O)CCC [Compound M14, 2′,3′,4′,6′-tetra-O-butyrylmangiferin] | 69000 | decrease in band density | – | 8 | 8 | – | – |
| O=c1c2cc(O)c(O)cc2oc2cc(O)cc(OCCO)c12 [Compound M18, 3,6,7-trihydroxy-1-(2-hydroxyethoxy)-9H-xanthen-9-one] | > 100000 | decrease in band density | – | 4540 | 2890 | – | – |
| CCC(=O)OC[C@H]1O[C@@H](c2c(O)cc3oc4cc(O)c(O)cc4c(=O)c3c2O)[C@H](OC(=O)CC)[C@@H](OC(=O)CC)[C@@H]1OC(=O)CC [Compound M9, 2′,3′,4′,6′-tetra-O-propionylmangiferin] | > 100000 | decrease in band density | – | 925 | 589 | – | – |
| CC(C)(C)C(=O)OC[C@H]1O[C@@H](c2c(O)cc3oc4cc(O)c(O)cc4c(=O)c3c2O)[C@H](OC(=O)C(C)(C)C)[C@@H](OC(=O)C(C)(C)C)[C@@H]1OC(=O)C(C)(C)C [Compound M15, 2′,3′,4′,6′-tetra-O-pivaloylmangiferin] | 71000 | decrease in band density | – | 22 | 11 | – | – |
| CCCCO[C@@H]1[C@@H](OCCCC)[C@H](c2c(O)cc3oc4cc(O)c(O)cc4c(=O)c3c2O)O[C@H](COC(=O)CCC)[C@H]1OC(=O)CCC [Compound M16, 2′,3′-di-O-butyl-4′,6′-di-O-butyrylmangiferin] | 58000 | decrease in band density | – | 9 | 7 | – | – |
| 1,2′,3′,4′,6-penta-O-propionylmangiferin [Compound 8a, reference compound] | – | decrease in band density | > 100000 | – | – | – | – |
| CCCC(=O)OC[C@H]1O[C@@H](c2c(O)cc3oc4cc(O)c(O)cc4c(=O)c3c2OC(=O)CCC)[C@H](OC(=O)CCC)[C@@H](OC(=O)CCC)[C@@H]1OC(=O)CCC [Compound M12, 1,2′,3′,4′,6-penta-O-butyrylmangiferin] | 75000 | decrease in band density | – | 21 | 15 | – | – |
| C=CCOc1cc(O)cc2oc3cc(O)c(O)cc3c(=O)c12 [Compound M19, 1-allyloxy-3,6,7-trihydroxy-9H-xanthen-9-one] | > 100000 | decrease in band density | – | 6740 | 4520 | – | – |
| CCCC(=O)OC[C@H]1O[C@@H](c2c(OC(=O)CCC)cc3oc4cc(OC(=O)CCC)c(OC(=O)CCC)cc4c(=O)c3c2OC(=O)CCC)[C@H](OC(=O)CCC)[C@@H](OC(=O)CCC)[C@@H]1OC(=O)CCC [Compound M11, 1,3,2′,3′,4′,6,6′,7-octa-O-butyrylmangiferin] | – | decrease in band density | > 100000 | – | – | 905 | 1850 |
| CCC(=O)OC[C@H]1O[C@@H](c2c(OC(=O)CC)cc3oc4cc(OC(=O)CC)c(OC(=O)CC)cc4c(=O)c3c2OC(=O)CC)[C@H](OC(=O)CC)[C@@H](OC(=O)CC)[C@@H]1OC(=O)CC [Compound M7, 1,3,2′,3′,4′,6,6′,7-octa-O-propionylmangiferin] | > 100000 | decrease in band density | – | – | – | – | – |
